“And” between values parts separate entries of the source, which are not always exact repeats. Equal entries are not always repeated. Numbers after ± are expanded uncertainties.
Settings: Transpiration method

Oc1cccc(Cl)c1Cl [2,3-dichlorophenol]
Settings | vapor or sublimation pressure [kPa]
294.3 K, Crystal | 0.0078 ± 0.0004
297.3 K, Crystal | 0.0107 ± 0.0006
300.2 K, Crystal | 0.0149 ± 0.0008
303.2 K, Crystal | 0.0192 ± 0.001
306.2 K, Crystal | 0.0267 ± 0.0013
309.2 K, Crystal | 0.0351 ± 0.0018
312.2 K, Crystal | 0.0482 ± 0.0024
315.2 K, Crystal | 0.0633 ± 0.0031
318.1 K, Crystal | 0.0798 ± 0.004
321.2 K, Crystal | 0.1081 ± 0.0054
324.3 K, Crystal | 0.1429 ± 0.0071
327.3 K, Crystal | 0.1835 ± 0.0089
331.2 K, Liquid | 0.2449 ± 0.012
334.3 K, Liquid | 0.2946 ± 0.014
337.2 K, Liquid | 0.3508 ± 0.017
340.3 K, Liquid | 0.4132 ± 0.02
343.2 K, Liquid | 0.4874 ± 0.023
346.2 K, Liquid | 0.5745 ± 0.027
349.2 K, Liquid | 0.6662 ± 0.032
352.1 K, Liquid | 0.7881 ± 0.037
355.2 K, Liquid | 0.9247 ± 0.044
358.2 K, Liquid | 1.078 ± 0.051

Oc1c(Cl)cc(Cl)cc1Cl [2,4,6-trichlorophenol]
Settings | vapor or sublimation pressure
299.4 K, Crystal | 0.00177 ± 9e-05 kPa
302.3 K, Crystal | 0.00245 ± 0.00012 kPa
305.2 K, Crystal | 0.00319 ± 0.00016 kPa
308.3 K, Crystal | 0.0044 ± 0.00022 kPa
311.3 K, Crystal | 0.00593 ± 0.0003 kPa
314.3 K, Crystal | 0.00805 ± 0.00041 kPa
316.8 K, Crystal | 0.01044 ± 0.00058 kPa and 0.01061 ± 0.00055 kPa
317.3 K, Crystal | 0.01125 ± 0.00061 kPa
320.3 K, Crystal | 0.015 ± 0.00076 kPa
323.3 K, Crystal | 0.02013 ± 0.001 kPa
326.3 K, Crystal | 0.02645 ± 0.0013 kPa
329.4 K, Crystal | 0.03488 ± 0.0017 kPa
332.5 K, Crystal | 0.04531 ± 0.0022 kPa
335.5 K, Crystal | 0.05882 ± 0.0029 kPa
338.2 K, Crystal | 0.07513 ± 0.0037 kPa
340.3 K, Crystal | 0.08978 ± 0.0044 kPa
342.8 K, Liquid | 0.1027 ± 0.0048 kPa
343.2 K, Liquid | 0.1041 ± 0.005 kPa
343.8 K, Liquid | 0.1081 ± 0.0052 kPa
345.2 K, Liquid | 0.1191 ± 0.0057 kPa
346.3 K, Liquid | 0.1271 ± 0.006 kPa
347.3 K, Liquid | 0.1317 ± 0.0063 kPa
348.3 K, Liquid | 0.1419 ± 0.0069 kPa
348.9 K, Liquid | 0.1495 ± 0.0072 kPa
350.4 K, Liquid | 0.1613 ± 0.0077 kPa
351.4 K, Liquid | 0.1716 ± 0.0082 kPa
353.3 K, Liquid | 0.1898 ± 0.009 kPa
353.9 K, Liquid | 0.1975 ± 0.0099 kPa
354.4 K, Liquid | 0.2102 ± 0.01 kPa
356.4 K, Liquid | 0.2268 ± 0.011 kPa
357.5 K, Liquid | 0.2519 ± 0.012 kPa
359 K, Liquid | 0.2809 ± 0.013 kPa
359.4 K, Liquid | 0.2784 ± 0.013 kPa
360.5 K, Liquid | 0.2994 ± 0.014 kPa
362.5 K, Liquid | 0.3322 ± 0.016 kPa
363.2 K, Liquid | 0.3412 ± 0.016 kPa
364.1 K, Liquid | 0.3663 ± 0.017 kPa
365.5 K, Liquid | 0.3878 ± 0.018 kPa
366.3 K, Liquid | 0.4095 ± 0.02 kPa
368.1 K, Liquid | 0.4623 ± 0.022 kPa
368.6 K, Liquid | 0.463 ± 0.022 kPa
369.4 K, Liquid | 0.4939 ± 0.024 kPa
372.4 K, Liquid | 0.5714 ± 0.027 kPa
373.2 K, Liquid | 0.6103 ± 0.029 kPa and 0.6087 ± 0.029 kPa
375.4 K, Liquid | 0.6794 ± 0.032 kPa

Oc1ccc(Cl)cc1Cl [2,4-dichlorophenol]
Settings | vapor or sublimation pressure [kPa]
278.2 K, Crystal | 0.00175 ± 0.0001
283.3 K, Crystal | 0.00312 ± 0.00017
289.3 K, Crystal | 0.00626 ± 0.00032
294.4 K, Crystal | 0.01082 ± 0.00054
297.3 K, Crystal | 0.01464 ± 0.00075
300.4 K, Crystal | 0.02025 ± 0.001
303.3 K, Crystal | 0.02801 ± 0.0014
306.3 K, Crystal | 0.03848 ± 0.0019
309.4 K, Crystal | 0.05208 ± 0.0026
312.4 K, Crystal | 0.06848 ± 0.0034
315.2 K, Crystal | 0.09034 ± 0.0045
317.2 K, Liquid | 0.1061 ± 0.0052
320.3 K, Liquid | 0.1326 ± 0.0064
323.2 K, Liquid | 0.1612 ± 0.0078
326.1 K, Liquid | 0.1933 ± 0.0094
329.2 K, Liquid | 0.2419 ± 0.012
332.2 K, Liquid | 0.2831 ± 0.013
335.2 K, Liquid | 0.3393 ± 0.016
338.2 K, Liquid | 0.4027 ± 0.019
341.2 K, Liquid | 0.4846 ± 0.023
344.2 K, Liquid | 0.5835 ± 0.028

Oc1cc(Cl)ccc1Cl [2,5-dichlorophenol]
Settings | vapor or sublimation pressure [kPa]
294.3 K, Crystal | 0.0089 ± 0.0005
297.3 K, Crystal | 0.0122 ± 0.0006
300.4 K, Crystal | 0.0168 ± 0.0009
303.3 K, Crystal | 0.0223 ± 0.0011
306.3 K, Crystal | 0.0302 ± 0.0015
309.2 K, Crystal | 0.0399 ± 0.002
312.2 K, Crystal | 0.0532 ± 0.0027
315.2 K, Crystal | 0.0708 ± 0.0036
318.3 K, Crystal | 0.0944 ± 0.0047
321.3 K, Crystal | 0.1257 ± 0.0063
324.4 K, Crystal | 0.1636 ± 0.0081
327.4 K, Crystal | 0.2133 ± 0.01
333.3 K, Liquid | 0.3198 ± 0.015
337.2 K, Liquid | 0.3996 ± 0.019
340.2 K, Liquid | 0.4726 ± 0.022
343.2 K, Liquid | 0.5513 ± 0.026
346.2 K, Liquid | 0.6514 ± 0.031
349.2 K, Liquid | 0.7643 ± 0.036
352.2 K, Liquid | 0.894 ± 0.043
355.2 K, Liquid | 1.048 ± 0.05
358.1 K, Liquid | 1.204 ± 0.057
361.2 K, Liquid | 1.403 ± 0.066
